{"source": "paper PMC3069143", "about": "(Analytical chemistry, 2011)", "key": {"rodent [1]": {"test_system": "rodent", "details": "cited from earlier work; for LD50 (in words): rat for styrene and NPYR, mouse for arylamines"}, "Calf thymus ds-DNA [2]": {"test_system": "Calf thymus ds-DNA", "assay": "ECL genotoxicity array, multi-enzyme", "details": "for ECL turnover rate R (in words): arylamines, HLE or MLE, AcCoA + NADPH"}, "rodent [3]": {"test_system": "rodent", "details": "cited from earlier work"}, "human hepatic cell lines": {"test_system": "human hepatic cell lines", "details": "ref Table S2 (SI); cited from earlier work"}, "[4]": {"test_system": "Salmonella typhimurium TA1535", "details": "ref Table S2 (SI); cited from earlier work"}, "[5]": {"test_system": "Salmonella typhimurium TA1538", "details": "ref Table S2 (SI); cited from earlier work"}, "Calf thymus ds-DNA [6]": {"test_system": "Calf thymus ds-DNA"}, "[7]": {"details": "1 min enzyme reaction, RLE or HLE"}}, "note": "Like-named read-outs stand apart in the source and are kept apart here."}
{"smiles": "Cc1ccc(N)cc1N", "note": "[2,4-DAT, 2,4-diaminotoluene]", "values": [{"measurement": "LD50 (in words)", "setting": "rodent [1]", "value": "small"}, {"measurement": "R relative to 2,6-DAT", "setting": "Calf thymus ds-DNA [2]; isomer pair 2,4-DAT vs 2,6-DAT", "value": 3, "unit": "fold"}]}
{"smiles": "Cc1c(N)cccc1N", "note": "[2,6-DAT, 2,6-diaminotoluene]", "values": [{"measurement": "ECL turnover rate R (in words)", "setting": "Calf thymus ds-DNA [2]", "value": "small but significant"}, {"measurement": "induction of liver tumors", "setting": "rodent [3]; rat models", "value": "fails to induce liver tumors"}]}
{"smiles": "CC(=O)Nc1ccc2c(c1)Cc1ccccc1-2", "note": "[2-AAF, N-acetyl-2-aminofluorene]", "values": [{"measurement": "Comet assay OTM/conc.", "setting": "human hepatic cell lines", "value": "large"}]}
{"smiles": "Nc1ccc2ccccc2c1", "note": "[2-NA, 2-naphthylamine]", "values": [{"measurement": "ECL turnover rate R (in words)", "setting": "Calf thymus ds-DNA [2]", "value": "did not generate large R"}]}
{"smiles": "Nc1ccc(-c2ccccc2)cc1", "note": "[4-ABP, 4-aminobiphenyl]", "values": [{"measurement": "ECL turnover rate R (in words)", "setting": "Calf thymus ds-DNA [2]", "value": "largest"}]}
{"smiles": "CN(CCCC(=O)c1cccnc1)N=O", "note": "[NNK, 4-(methylnitrosamino)-1-(3-pyridyl)-1-butanone]", "values": [{"measurement": "Ames mutagenicity, TA1535", "setting": "[4]", "value": "only slightly mutagenic"}, {"measurement": "Ames mutagenicity, TA1538", "setting": "[5]", "value": "not mutagenic"}, {"measurement": "ECL produced relative to styrene", "setting": "Calf thymus ds-DNA [6]; 0.2 mM substrate, either RLE or HLE, NADPH regenerating system", "value": "2–3 times"}, {"measurement": "substrate concentration giving measurable ECL increase", "setting": "Calf thymus ds-DNA [6]; [7]", "value": 0.2, "unit": "mM"}, {"measurement": "Comet assay OTM/conc.", "setting": "human hepatic cell lines", "value": "small"}]}
{"smiles": "O=NN1CCCC1", "note": "[NPYR, N-nitrosopyrrolidine]", "values": [{"measurement": "LD50 (in words)", "setting": "rodent [1]", "value": "small"}, {"measurement": "Ames mutagenicity, TA1535", "setting": "[4]", "value": "only slightly mutagenic"}, {"measurement": "Ames mutagenicity, TA1538", "setting": "[5]", "value": "not mutagenic"}, {"measurement": "substrate concentration giving measurable ECL increase", "setting": "Calf thymus ds-DNA [6]; [7]", "value": 0.2, "unit": "mM"}]}
{"smiles": "C=Cc1ccccc1", "note": "[styrene]", "values": [{"measurement": "LD50 (in words)", "setting": "rodent [1]", "value": "small"}, {"measurement": "ECL turnover rate R (in words)", "setting": "Calf thymus ds-DNA [6]", "value": "small"}, {"measurement": "substrate concentration giving measurable ECL increase", "setting": "Calf thymus ds-DNA [6]", "value": 1, "unit": "mM"}, {"measurement": "Comet assay OTM/conc.", "setting": "human hepatic cell lines", "value": "small"}]}
{"smiles": "Cc1ccccc1", "note": "[toluene]", "values": [{"measurement": "LD50", "setting": "rodent [1]; rodent, single dose", "value": 2250, "unit": "mg/kg body weight"}, {"measurement": "TD50", "setting": "rodent [3]; liver TD50, rodent", "value": 5390, "unit": "mg/kg body weight per day"}]}
